According to patent US4438120A, “Pyridoindolobenzodiazepine tranquilizers” (E. I. Du Pont de Nemours & Company, priority 1982, dated 1984):

Test system: Conditioned Avoidance Response (CAR)
Test: Conditioned Avoidance Response (CAR) test in mice, oral
Type: in vivo, mouse (female white mice)
Conditions: female white mice, moving average method
Description: The paradigm used for predicting tranquilizer activity was a Conditioned Avoidance Response (CAR) test in mice. Female white mice, 19-23 g, were used. The apparatus modified from Bovet, D. et al., Science, 163, 139-149 (1969), was a one-way shuttlebox with 0.4 mA scrambled electric footshock as unconditioned stimulus (US) and a 6 watt white light plus a relay buzzer as conditioned stimuli (CS). Mice were conditioned by three sets of 1-5 trials on day 1, then were fasted for 17-21 hours. The conditioned mice were tested for retention of the conditioned response on day 2, and then were dosed orally with test drug at doses such as 0, 1, 3, 9, 27 and 81 mg/kg. ED50 values (doses at which 50% of the animals would be expected to show response failure) were calculated by the moving average method [Thompson, W. R., Bact. Rev., 11, 115 (1947)].

Compound | Mouse CAR ED50 (avoidance ED50, dose at which 50% of the animals would be expected to show response failure) [mg/kg]
O=C1Nc2cccc3c4c(n(c23)-c2ccccc21)CCNC4 [Example 2, 1,2,3,4-tetrahydropyrido[4',3':2,3]indolo[1,7-ab][1,4]benzodiazepin-9(8H)-one] | 39
CCN1CC[C@@H]2[C@@H](C1)c1cc(C(F)(F)F)cc3c1N2c1ccccc1CN3C (relative stereo) [Example 107] | 10.1
CN1CCc2c(c3c(Cl)ccc4c3n2-c2ccccc2C(=O)N4)C1 [Example 10] | 19.7
5-Chloro-1,2,3,4-tetrahydro-3-(3-oxobutyl)pyrido[4',3':2,3]indolo[1,7-ab][1,4]benzodiazepin-8(9H)-one [Example 52] | 39
CN1Cc2ccccc2N2c3c(cccc31)[C@@H]1CN(Cc3ccccc3)CC[C@H]12 (relative stereo) [Example 112] | 6.8
CCCCCCN1CC[C@@H]2[C@@H](C1)c1cc(Cl)cc3c1N2c1ccc(C)cc1CN3 (relative stereo) [Example 108] | 2.5
Clc1cc2c3c(c1)c1c(n3-c3ccccc3CN2)CCNC1 [Example 59, 6-Chloro-1,2,3,4,8,9-hexahydropyrido[4',3':2,3]indolo[1,7-ab][1,4]benzodiazepine] | 9.0
O=C1Nc2ccc(Cl)c3c4c(n(c23)-c2ccccc21)CCNC4 [Example 3] | 45
Cc1ccc2c(c1)C(=O)Nc1cccc3c4c(n-2c13)CCNC4 [Example 6] | 24
O=C1Nc2cccc3c4c(n(c23)-c2ccc(Cl)cc21)CCNC4 [Example 7] | 25
CCN1CC[C@@H]2[C@@H](C1)c1cccc3c1N2c1ccc(Cl)cc1CN3 (relative stereo) [Example 105] | 24
Cc1ccc2c(c1)C(=O)Nc1ccc(Cl)c3c4c(n-2c13)CCNC4 [Example 9] | > 81
CCN1CC[C@@H]2[C@@H](C1)c1cccc3c1N2c1ccccc1CN3C (relative stereo) [Example 104] | 41
c1ccc2c(c1)CNc1cccc3c1N2[C@@H]1CCN(CC2CCCCC2)C[C@@H]31 (relative stereo) [Example 111] | 3.3
CCN1CC[C@@H]2[C@@H](C1)c1cc(Cl)cc3c1N2c1ccccc1CN3.Cl.Cl (relative stereo) [Example 96, trans-6-Chloro-3-ethyl-1,2,3,4,4a,8,9,14a-octahydropyrido[4',3':2,3]indolo[1,7-ab][1,4]benzodiazepine, Dihydrochloride] | 0.3
CN1CCc2c(c3cc(C(F)(F)F)cc4c3n2-c2ccc(Cl)cc2C(=O)N4)C1 [Example 17] | 37
CN1CC[C@@H]2[C@@H](C1)c1cccc3c1N2c1ccc(Cl)cc1CN3 (relative stereo) [Example 99] | 1.4
CCN1CC[C@@H]2[C@@H](C1)c1c(Cl)ccc3c1N2c1ccccc1CN3 (relative stereo) [Example 102] | 5.8
Clc1ccc2c(c1)CNc1cccc3c4c(n-2c13)CCNC4 [Example 61] | 34
CCCCCCCCCCN1CCc2c(c3cc(Cl)cc4c3n2-c2ccccc2C(=O)N4)C1 [Example 44] | > 162
CCCCCCN1CCc2c(c3cc(Cl)cc4c3n2-c2ccc(C)cc2C(=O)N4)C1 [Example 42] | 162
Clc1ccc2c(c1)CNc1cccc3c1N2[C@@H]1CCN(CC2CC2)C[C@@H]31 (relative stereo) [Example 109] | 2.1
CCCCCCN1CCc2c(c3cccc4c3n2-c2ccc(Cl)cc2C(=O)N4)C1 [Example 43] | > 81
O=C1Nc2cccc3c4c(n(c23)-c2cc(Cl)ccc21)CCNC4 [Example 8] | > 54
Cc1ccc2c(c1)CNc1cc(Cl)cc3c1N2[C@@H]1CCN(C)C[C@@H]31 (relative stereo) [Example 101] | 0.69
CN1CCc2c(c3cc(C(F)(F)F)cc4c3n2-c2ccccc2C(=O)N4)C1 [Example 18] | > 81
Clc1ccc2c(c1)CNc1cccc3c4c(n-2c13)CCN(CCc1ccccc1)C4 [Example 69] | 27

Compound | Mouse CAR ED50 (avoidance ED50, dose at which 50% of the animals would be expected to show response failure) [mg/kg]
CN1CCc2c(c3cccc4c3n2-c2ccc(Cl)cc2C(=O)N4)C1 [Example 12] | 12
CCN1CCc2c(c3cccc4c3n2-c2ccccc2C(=O)N4)C1 [Example 32] | 27
O=C1Nc2cc(C(F)(F)F)cc3c4c(n(c23)-c2ccccc21)CCNC4 [Example 5] | 81
Clc1cc2c3c(c1)c1c(n3-c3ccccc3CN2)CCN(CC2CCCCC2)C1 [Example 68, 6-Chloro-3-cyclohexylmethyl-1,2,3,4,8,9-hexahydropyrido[4',3':2,3]indolo[1,7-ab][1,4]benzodiazepine] | 7.1
CCCCCCN1CCc2c(c3cc(Cl)cc4c3n2-c2ccccc2C(=O)N4)C1 [Example 37] | 11.8
O=C1Nc2cccc3c4c(n(c23)-c2ccccc21)CCN(CC1CCCCC1)C4 [Example 38] | 56.2
Cc1ccc2c(c1)C(=O)Nc1cc(Cl)cc3c4c(n-2c13)CCNC4 [Example 20] | > 81
CN1CCc2c(c3cc(Cl)cc4c3n2-c2ccccc2C(=O)N4)C1 [Example 11] | 67
CCN1CC[C@@H]2[C@@H](C1)c1cc(C(F)(F)F)cc3c1N2c1ccccc1CN3 (relative stereo) [Example 103] | 1.2
Cc1ccc2c(c1)C(=O)Nc1ccc(Cl)c3c4c(n-2c13)CCN(C)C4 [Example 19] | > 81
CCCCCCN1CCc2c(c3cccc4c3n2-c2ccccc2C(=O)N4)C1 [Example 35] | 56.2
CN1CCc2c(c3cc(Cl)cc4c3n2-c2ccc(Cl)cc2C(=O)N4)C1 [Example 14] | 31
CCCCCCN1CCc2c(c3c(Cl)ccc4c3n2-c2ccccc2C(=O)N4)C1 [Example 36] | 52
CN1CC[C@@H]2[C@@H](C1)c1cccc3c1N2c1ccccc1CN3 (relative stereo) [Example 97] | 9.0
Cc1ccc2c(c1)C(=O)Nc1cc(Cl)cc3c4c(n-2c13)CCN(C)C4 [Example 13] | 10.5
Cl.O=C(O)CCCN1CCc2c(c3cc(Cl)cc4c3n2-c2ccccc2C(=O)N4)C1 [Example 51, 6-Chloro-1,2,8,9-tetrahydro-9-oxopyrido[4',3':2,3]indolo[1,7-ab][1,4]benzodiazepin-3(4H)-butanoic acid hydrochloride] | 56.2
O=C1Nc2cc(Cl)cc3c4c(n(c23)-c2ccccc21)CCNC4 [Example 4] | 29
CN1CC[C@@H]2[C@@H](C1)c1cc(Cl)cc3c1N2c1ccc(Cl)cc1CN3 (relative stereo) [Example 100] | 2.1
CCCN1CCc2c(c3cc(Cl)cc4c3n2-c2ccccc2C(=O)N4)C1 [Example 34] | 13.6
CN1Cc2ccccc2-n2c3c(c4cc(C(F)(F)F)cc1c42)CNCC3 [Example 62] | > 81
CCCCCCN1CCc2c(c3c(Cl)ccc4c3n2-c2ccc(C)cc2C(=O)N4)C1 [Example 41] | > 81
O=C1Nc2cc(C(F)(F)F)cc3c4c(n(c23)-c2ccc(Cl)cc21)CCNC4 [Example 21] | > 81
Clc1ccc2c(c1)CNc1cccc3c1N2[C@@H]1CCN(CCc2ccccc2)C[C@@H]31 (relative stereo) [Example 114] | 5.2
Cc1ccc2c(c1)C(=O)Nc1cc(Cl)cc3c4c(n-2c13)CCN(CCc1ccccc1)C4 [Example 16] | 47
FC(F)(F)c1cc2c3c(c1)[C@@H]1CN(CC4CC4)CC[C@H]1N3c1ccccc1CN2 (relative stereo) [Example 110] | 15.6
Cc1ccc2c(c1)CNc1cc(Cl)cc3c1N2[C@@H]1CCN(CCc2ccccc2)C[C@@H]31 (relative stereo) [Example 113] | 3.5
